Data set [1] in a line: Linear oscillatory shear rheology (gelation temperature, storage and loss moduli). Conditions: for effect on plateau values of G′ and G″ / mechanical properties and gelation temperature: CPE added separately to Cip-18% [P407-PBP]; for reduction of gelation temperature: CPE added separately to Cip-18% [P407-PBP] (1% SDS, 2% limonene or 0.5% bupivacaine).
The test system of a further data set is S. pneumoniae. Conditions: cited from earlier work.
The test system of data set [2] is non-typable H. influenzae (NTHi). Conditions: cited from earlier work.
The nature of data set [3]: Pharmacokinetics in the OM model: ciprofloxacin in middle ear fluid and plasma. The format is in vivo, chinchilla. Particulars: animals treated with the standard formulation.
A short description of data set [4]: Ex vivo permeation of ciprofloxacin across the tympanic membrane.
Setting [5] is: 2% limonene added to Cip-18% [P407-PBP].

Turning to `CCCCN1CCCCC1C(=O)Nc1c(C)cccc1C` (centres unmarked) [Bupivacaine], the “effect on plateau values of G′ and G″ / mechanical properties and gelation temperature” value in data set [1] is on record as “minimal effects”.

Regarding `CCCCCCCCCCCCOS(=O)(=O)[O-].[Na+]` [SDS, Sodium dodecyl sulfate], in data set [1], the “effect on plateau values of G′ and G″ / mechanical properties and gelation temperature” value is “did not affect”; the “reduction of gelation temperature” value is approximately 1.5 °C.

As to `O=C(O)c1cn(C2CC2)c2cc(N3CCNCC3)c(F)cc2c1=O` [ciprofloxacin], in the data set on S. pneumoniae, the “MIC for S. pneumoniae” value was 0.5 to 4 µg/mL and the “minimum inhibitory concentration for S. pneumoniae middle ear infections” value is “about 4 μg/mL”. Also, in data set [2], the “MIC for non-typable H. influenzae (NTHi)” value was less than 0.1 to 0.5 µg/mL, the “minimum inhibitory concentration (MIC) of NTHi” value is 0.1 to 0.5 µg/mL and the “minimum inhibitory concentration for H. influenza middle ear infections” value is recorded as “about 4 μg/mL”. In addition, the “ciprofloxacin in the blood” value in data set [3] is “undetectable”.

Take `C=C(C)[C@H]1CC=C(C)CC1` [limonene]: the “concentration-dependent increase in ciprofloxacin transfer” value in data set [4] (48 hours, limonene added) is “two-to-three-fold”. The “time at which ciprofloxacin was detected in the receiving buffer” value in data set [4] (limonene added to ciprofloxacin) is 1 to 2 h. Moreover, in data set [1] (setting [5]), the “decrease of G″” value came to 4.1 kPa and the “increase of G′” value is given as 10.5 kPa. Besides, the “reduction of gelation temperature” value in data set [1] turned out to be 14 °C.

The record behind these values is patent US12053527B2, “Compositions with permeation enhancers for drug delivery” (priority 2015, dated 2024).
